Patent publication US20060167271A1, “Purified compounds that inhibit intracellular alphax4/paxillin binding” (priority 2002, published 2006)
Like-named read-outs stand apart in the source and are kept apart here.

Legend:
[1] = biological target: T1, Paxillin/α4 binding (immobilized His-tagged α4 tail, soluble recombinant Paxillin) (Homo sapiens, UniProt P13612+P49023); experiment: Immobilized Paxillin/α4 binding assay (ELISA)
T1 construct: The design and production of recombinant cytoplasmic α4 tail polypeptide have been described; made in house; host or cells: E. coli BL21(DE3)pLysS for the α4 tail
T1 sequence (P13612 1002-1032 limits assumed): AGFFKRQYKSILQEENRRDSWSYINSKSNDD
T1 sequence (P49023 1-557 isoform P49023-2): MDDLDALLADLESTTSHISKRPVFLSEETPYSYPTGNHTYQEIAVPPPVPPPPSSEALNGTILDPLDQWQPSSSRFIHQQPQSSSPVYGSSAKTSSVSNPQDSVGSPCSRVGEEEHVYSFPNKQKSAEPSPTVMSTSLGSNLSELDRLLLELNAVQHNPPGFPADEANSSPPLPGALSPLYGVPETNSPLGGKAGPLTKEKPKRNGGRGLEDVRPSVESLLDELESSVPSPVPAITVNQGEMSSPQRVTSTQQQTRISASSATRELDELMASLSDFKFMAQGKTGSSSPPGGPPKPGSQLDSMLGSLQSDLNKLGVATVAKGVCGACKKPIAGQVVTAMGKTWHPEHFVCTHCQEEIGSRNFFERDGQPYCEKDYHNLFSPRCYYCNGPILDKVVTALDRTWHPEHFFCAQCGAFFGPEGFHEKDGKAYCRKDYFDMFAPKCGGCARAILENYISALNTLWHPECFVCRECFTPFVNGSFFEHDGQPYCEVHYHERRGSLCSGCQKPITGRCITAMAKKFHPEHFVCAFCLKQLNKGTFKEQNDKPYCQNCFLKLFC
Procedure: FIG. 4 is a schematic representation of the high throughput screening by ELIZA used herein in which the α4 tail is coated onto a Ni-NTA microtiter plate (a), Paxillin is permitted to bind to α4 (b), first antibody is added (anti-Paxillin) (c), second antibody is added (HRP-conjugated, anti-mouse) (d), and Pax/α4 binding efficiency is measured by detection at 490 nm (e). For binding inhibition, compounds were added during Paxillin incubation (step b). […], zero % inhibition was measured from incubation with Paxillin and no compound.
Initially, roughly 40,000 compounds were screened in approximately 2000 wells (most as a mixture of 10 compounds, 50 μM total concentration) in an ELISA assay using an immobilized His-tagged α4 tail [Pfaff et al. (1998) J. Biol. Chem. 273, 6104-6109] and examining the binding inhibition of soluble recombinant Paxillin [Salgia et al. (1995) J. Biol. Chem. 270, 5039-5047] (FIG. 3).
Paxillin/α4 binding assays were performed as follows. Ni-NTA HisSorb microtiter strips (Qiagen) were coated overnight at 4° C. with purified α4 tail integrin (5 μg/ml, 100 μl per well) in PBS buffer (8 mM Na2HPO4, 1.5 mM KH2PO4, 135 mM NaCl, 2.5 mM KCl [pH 7.4]) supplemented with heat-denatured BSA (0.2%). The plates were washed three times with PBS buffer to remove unbound integrin, blocked with 150 μl of heat-denatured 1% BSA (denatured at 85° C. for 30 minutes and supplemented with 0.05% sodium azide) for 1 hour at room temperature, and washed again three times with PBS buffer.
Purified Paxillin in binding buffer (10% DMSO, 0.2% BSA in PBS buffer) was added to the wells at a concentration of 5 μg/ml in the presence or absence of compounds (1 mM DMSO stock solutions). […] As a control, blocked wells without integrin were examined for binding. After 1 hour at room temperature, the wells were washed three times with PBS buffer, incubated with first antibody (12CA5 ascites, 1/10000 in PBS plus 1% BSA, 100 μL) for 1 hour at room temperature, then with second antibody (100 μl HRP-conjugated anti-mouse [Biosource] in PBS buffer plus 1% BSA) for 1 hour at room temperature. Each well was treated with 50 μl of substrate solution (4 mg o-phenylenediamine, 4 μl of 30% H2O2, 80 mM citrate phosphate [pH 5]) and stopped after 10 minutes at room temperature with 50 μl H2SO4 (2 N). Binding was quantitated on a vmax kinetic microplate reader (Molecular Devices) at 490 nm. Zero % inhibition control was measured with Paxillin and no compound, and 100% inhibition control (background) was measured with no Paxillin and no compound. Each well was duplicated and percent inhibition was averaged.

[2] = biological target: T2, binding of Paxillin to the α4 tail protein (Homo sapiens, UniProt P13612+P49023); experiment: Integrin tail affinity chromatography binding study
T2 construct: The design and production of recombinant cytoplasmic α4 tail polypeptide have been described; made in house; host or cells: E. coli BL21(DE3)pLysS for the α4 tail
T2 sequence (P13612 1002-1032 limits assumed): as the sequence (P13612 1002-1032 limits assumed) above
T2 sequence (P49023 1-557 isoform P49023-2): as the sequence (P49023 1-557 isoform P49023-2) above
Procedure: FIG. 6 in two parts as 6A and 6B includes results of an affinity chromatography binding study (6A) and scanning densitometry results shown in graphical form for the bound Paxillin (6B). In 6A, recombinant HA-tagged GST-Paxillin (100 nM) was added to Ni^2+-charged resin loaded with α4 tail protein in the absence (lane a) or presence of compound 11-A7B7C7 (lane b, 5 μM; lane c, 25 μM; lane d, 100 μM) or compound 11-A6B6C6 (lane e, 25 μM). Bound protein was collected and separated by SDS-PAGE under reducing conditions, transferred to a nitrocellulose membrane, and stained with HA-tag-specific antibody, 12CA5. In 6B, bound Paxillin was quantified by scanning densitometry of those immunoblots using the NIH Image program. The depicted results are representative from two studies.
In order to confirm the effectiveness and selectivity of Compound 11-A7B7C7 at inhibiting Paxillin/α4 binding, a series of binding studies was conducted using affinity chromatography techniques [Liu S et al. (1999) Nature 402, 676-681; and Pfaff et al. (1998) J. Biol. Chem. 273, 6104-6109]. […] Bound protein was collected and separated by electrophoresis and analyzed by immunoblotting.
Integrin tail affinity chromatography was performed as described [Rose (2001) J. Immunol. 167, 2824-2830]. […]

[3] = test system: integrin α4β1-mediated migration of Jurkat T cells; experiment: Cell migration assay (modified Boyden chamber); type: cell-based; conditions: Homo sapiens
Procedure: Cell migration was assayed in a modified Boyden chamber assay system as previously described [Rose et al. (2001) J. Immunol. 167, 2824-2830]. […] 167, 2824-2830]. Transwells (Costar, Corning) polycarbonate membranes containing 3.0 μm pores were coated with 5 μg/ml recombinant soluble VCAM-1. Membranes were blocked with 2% BSA in PBS for 30 minutes at room temperature. 2.0×10^5 cells in RPMI-1640 containing the indicated concentration of the compound and a final concentration of 0.1% DMSO were added to the top chamber. SDF-1α (R&D Systems) at a final concentration of 15 ng/ml was added to the bottom chamber. Cells were permitted to migrate for 4 hours at 37° C. Cells in the bottom chamber were enumerated with a hemocytometer, and data are expressed as percent inhibition of migration. Depicted are the mean and range of duplicate determinations from one of two studies with similar results.
The Jurkat E6-1 T leukemic cell line was purchased from American Type Culture Collection (ATCC), Rockville, Md. and cultured in RPMI-1640 (Biowhitaker Inc, Walkersville, Md.) supplemented with 10% FCS (Biowhitaker Inc), 1% glutamine, 50 units/ml penicillin, and 50 μg/ml streptomycin (Sigma Chemical, St Louis, Mo.).
Cell migration was assayed in a modified Boyden chamber assay system. […]

[4] = read-out: IC50 of Paxillin/α4 binding inhibition
[5] = read-out: Inhibition of Pax/α4 binding (% at 1 μM)

Molecule: CC(C)(C)OC(=O)N1CCc2c1ccc1[nH]c(C(=O)O)cc21 [Compound 18, Boc-CDPI-OH]
- Inhibition of Pax/α4 binding (% at 1 μM) ([1]; 1 μM): 6%

Molecule: COC(=O)c1cc2c3c(ccc2[nH]1)N(C(=O)c1cc2c4c(ccc2[nH]1)N(C(=O)c1cc2c5c(ccc2[nH]1)NCC5)CC4)CC3 [Compound 25, H-CDPI3-OMe]
- IC50 [1, 4]: 0.3 µM
- inhibition at 1 µM [1, 5]: 73%

Molecule: COC(=O)c1cc2c3c(ccc2[nH]1)N(C(=O)c1cc2c4c(ccc2[nH]1)N(C(=O)c1cc2c5c(ccc2[nH]1)N(C(=O)CCCN(C)C)CC5)CC4)CC3 [Compound 11-A7B7C7, DMABA-CDPI3-OMe]
- inhibition at 1 µM ([1]; 1 μM, read-out: Inhibition (%) of α4/Paxillin Binding by Deconvoluted Samples of 11-AxByCz): 76%
- IC50 [1, 4]: 0.3 µM
- inhibition at 1 µM [1, 5]: 78%
- Binding of Paxillin to the α4 tail protein ([2]; GST-Paxillin 100 nM, immunoblot): markedly reduced
- Quantification of bound Paxillin (scanning densitometry) ([2]; concentrations as low as 5 μM): near background levels
- inhibition at 15 µM ([3]; Jurkat, highest possible dose, 15 μM, read-out: Maximum inhibition of migration): ~70%
- IC50 ([3]; Jurkat T cells, VCAM-1 coated membranes, SDF-1α, 4 hours, read-out: IC50 of inhibition of α4β1-mediated cell migration): ~10 µM

Molecule: DMABA-CDPI-OMe [Compound 19]
- Inhibition of Pax/α4 binding (% at 1 μM) ([1]; 1 μM): −3%

Molecule: COC(=O)c1cc2c3c(ccc2[nH]1)N(C(=O)c1cc2c4c(ccc2[nH]1)NCC4)CC3 [Compound 21, H-CDPI2-OMe]
- Inhibition of Pax/α4 binding (% at 1 μM) ([1]; 1 μM): 14%

Molecule: O=C(O)c1cc2c3c(ccc2[nH]1)N(C(=O)c1cc2c4c(ccc2[nH]1)NCC4)CC3 [Compound 23, H-CDPI2-OH]
- Inhibition of Pax/α4 binding (% at 1 μM) ([1]; 1 μM): 27%

Molecule: DMABA-CDPI2-OMe [Compound 22]
- Inhibition of Pax/α4 binding (% at 1 μM) ([1]; 1 μM): 36%

Molecule: COC(=O)c1cc2c3c(ccc2[nH]1)N(C(=O)c1cc2c4c(ccc2[nH]1)N(C(=O)OC(C)(C)C)CC4)CC3 [Compound 20, Boc-CDPI2-OMe]
- Inhibition of Pax/α4 binding (% at 1 μM) ([1]; 1 μM): 13%

Molecule: COC(=O)c1cc2c3c(ccc2[nH]1)N(C(=O)OC(C)(C)C)CC3 [Compound 15, Boc-CDPI-OMe]
- Inhibition of Pax/α4 binding (% at 1 μM) ([1]; 1 μM): 3%

Molecule: COC(=O)c1cc2c3c(ccc2[nH]1)NCC3 [Compound 16, H-CDPI-OMe]
- Inhibition of Pax/α4 binding (% at 1 μM) ([1]; 1 μM): 19%

Molecule: Boc-CDPI3-OMe [Compound 24]
- Paxillin/α4 binding inhibition, result in words [1]: substantial loss of activity
- Inhibition of Pax/α4 binding (% at 1 μM) ([1]; 1 μM): 25%

Molecule: O=C(O)c1cc2c3c(ccc2[nH]1)NCC3 [Compound 17, H-CDPI-OH]
- Inhibition of Pax/α4 binding (% at 1 μM) ([1]; 1 μM): 11%

Molecule: O=C(O)c1cc2c3c(ccc2[nH]1)N(C(=O)c1cc2c4c(ccc2[nH]1)N(C(=O)c1cc2c5c(ccc2[nH]1)NCC5)CC4)CC3 [Compound 26, H-CDPI3-OH]
- Paxillin/α4 binding inhibition, result in words [1]: only a slight reduction in potency
- inhibition at 1 µM [1, 5]: 68%
- IC50 ([1]; read-out: inhibition of Pax/α4 binding (IC50 in μM)): 0.5 µM
